# Assay results reported in PubChem BioAssay AID2060883 (Molecular Pharmacology Branch, DTP, NCI, 2025).
# “And” between values parts separate entries of the source, which are not always exact repeats. Equal values may be shown once.
# Tested on: 843782-103-R-J1-PDC complex spheroid viability
# Experiment: Anticancer human tumor 843782-103-R-J1-PDC patient-derived lung adenocarcinoma cell line growth inhibition [RAS]
# Settings: for viability, T/C: stronger effect = lower value
# Outline: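 Tumour cells grown as complex spheroids with HUVEC endothelial cells and mesenchymal stem cells, treated with RAS pathway inhibitor combinations. Each agent spans half-log steps from near clinical Cmax, or 10 microM where Cmax is unknown.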
# 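Also: viability read after seven days of compound exposure.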
smiles,measurement,setting,value
CC(=O)OC12COC1CC(O)C1(C)C(=O)C(O)C3=C(C)C(OC(=O)C(O)C(NC(=O)OC(C)(C)C)c4ccccc4)CC(O)(C(OC(=O)c4ccccc4)C21)C3(C)C (stereo unspecified) + C#Cc1c(F)ccc2cc(O)cc(-c3ncc4c(N5CC6CCC(C5)N6)nc(OCC56CCCN5CC(F)C6)nc4c3F)c12,IC50,"curve of first compound, second compound 0.0316 µM",< 31.6 nM
same,IC50,"curve of first compound, second compound 0.1 µM",< 31.6 nM
same,IC50,"curve of first compound, second compound 0.316 µM",< 31.6 nM
same,IC50,"curve of first compound, second compound 1 µM",< 31.6 nM
same,IC50,"curve of first compound, second compound 3.16 µM",< 31.6 nM
same,IC50,"curve of first compound, second compound 10 µM",< 31.6 nM
same,"viability, T/C","second compound 0.0316 µM, first compound 0.0316 µM",4.52%
same,"viability, T/C","second compound 0.0316 µM, first compound 0.1 µM",3.3%
same,"viability, T/C","second compound 0.0316 µM, first compound 0.316 µM",5.75%
same,"viability, T/C","second compound 0.0316 µM, first compound 1 µM",5.44%
same,"viability, T/C","second compound 0.0316 µM, first compound 3.16 µM",6.53%
same,"viability, T/C","second compound 0.0316 µM, first compound 10 µM",7.38%
same,"viability, T/C","second compound 0.1 µM, first compound 0.0316 µM",5.17%
same,"viability, T/C","second compound 0.1 µM, first compound 0.1 µM",4.75%
same,"viability, T/C","second compound 0.1 µM, first compound 0.316 µM",5.48%
same,"viability, T/C","second compound 0.1 µM, first compound 1 µM",5.75%
same,"viability, T/C","second compound 0.1 µM, first compound 3.16 µM",5.28%
same,"viability, T/C","second compound 0.1 µM, first compound 10 µM",6.18%
same,"viability, T/C","second compound 0.316 µM, first compound 0.0316 µM",5.18%
same,"viability, T/C","second compound 0.316 µM, first compound 0.1 µM",5.95%
same,"viability, T/C","second compound 0.316 µM, first compound 0.316 µM",5.15%
same,"viability, T/C","second compound 0.316 µM, first compound 1 µM",5.27%
same,"viability, T/C","second compound 0.316 µM, first compound 3.16 µM",4.44%
same,"viability, T/C","second compound 0.316 µM, first compound 10 µM",8.29%
same,"viability, T/C","second compound 1 µM, first compound 0.0316 µM",4.8%
same,"viability, T/C","second compound 1 µM, first compound 0.1 µM",6.07%
same,"viability, T/C","second compound 1 µM, first compound 0.316 µM",7.89%
same,"viability, T/C","second compound 1 µM, first compound 1 µM",6.08%
same,"viability, T/C","second compound 1 µM, first compound 3.16 µM",5.69%
same,"viability, T/C","second compound 1 µM, first compound 10 µM",8.43%
same,"viability, T/C","second compound 3.16 µM, first compound 0.0316 µM",5.43%
same,"viability, T/C","second compound 3.16 µM, first compound 0.1 µM",5.83%
same,"viability, T/C","second compound 3.16 µM, first compound 0.316 µM",5.33%
same,"viability, T/C","second compound 3.16 µM, first compound 1 µM",4.35%
same,"viability, T/C","second compound 3.16 µM, first compound 3.16 µM",6.83%
same,"viability, T/C","second compound 3.16 µM, first compound 10 µM",8.8%
same,"viability, T/C","second compound 10 µM, first compound 0.0316 µM",5.06%
same,"viability, T/C","second compound 10 µM, first compound 0.1 µM",3.91%
same,"viability, T/C","second compound 10 µM, first compound 0.316 µM",6.9%
same,"viability, T/C","second compound 10 µM, first compound 1 µM",4.34%
same,"viability, T/C","second compound 10 µM, first compound 3.16 µM",3.89%
same,"viability, T/C","second compound 10 µM, first compound 10 µM",7.89%
CC(C)NCC(C(=O)N1CCN(c2ncnc3c2C(C)CC3O)CC1)c1ccc(Cl)cc1 (stereo unspecified),"viability, T/C",compound 0.0316 µM,106% (2×) and 97% and 95.9%
same,"viability, T/C",compound 0.1 µM,96.2% [middle of 4 runs]
same,"viability, T/C",compound 0.316 µM,92.3% [middle of 4 runs]
same,"viability, T/C",compound 1 µM,62.4% [middle of 4 runs]
same,"viability, T/C",compound 3.16 µM,30% [middle of 4 runs]
same,"viability, T/C",compound 10 µM,13.7% [middle of 4 runs]
same,IC50,curve of compound,1.54 µM [middle of 4 runs]
C=CC(=O)Nc1cc(Nc2nccc(-c3cn(C)c4ccccc34)n2)c(OC)cc1N(C)CCN(C)C + CCn1c(-c2cc(N3CCN(C)CC3)cnc2C(C)OC)c2c3cc(ccc31)-c1csc(n1)CC(NC(=O)C1CC1C)C(=O)N1CCCC(N1)C(=O)OCC(C)(C)C2,IC50,"curve of first compound, second compound 0.000949 µM",296 nM
same,IC50,"curve of first compound, second compound 0.003 µM",28.9 nM
same,IC50,"curve of first compound, second compound 0.00949 µM",< 3.16 nM
same,IC50,"curve of first compound, second compound 0.03 µM",< 3.16 nM
same,IC50,"curve of first compound, second compound 0.0949 µM",< 3.16 nM
same,IC50,"curve of first compound, second compound 0.3 µM",< 3.16 nM
same,"viability, T/C","second compound 0.000949 µM, first compound 0.00316 µM",81.5%
same,"viability, T/C","second compound 0.000949 µM, first compound 0.01 µM",69%
same,"viability, T/C","second compound 0.000949 µM, first compound 0.0316 µM",71.1%
same,"viability, T/C","second compound 0.000949 µM, first compound 0.1 µM",56.2%
same,"viability, T/C","second compound 0.000949 µM, first compound 0.316 µM",49.4%
same,"viability, T/C","second compound 0.000949 µM, first compound 1 µM",41.3%
same,"viability, T/C","second compound 0.003 µM, first compound 0.00316 µM",60.1%
same,"viability, T/C","second compound 0.003 µM, first compound 0.01 µM",55.5%
same,"viability, T/C","second compound 0.003 µM, first compound 0.0316 µM",50%
same,"viability, T/C","second compound 0.003 µM, first compound 0.1 µM",41%
same,"viability, T/C","second compound 0.003 µM, first compound 0.316 µM",33.9%
same,"viability, T/C","second compound 0.003 µM, first compound 1 µM",30.2%
same,"viability, T/C","second compound 0.00949 µM, first compound 0.00316 µM",34.9%
same,"viability, T/C","second compound 0.00949 µM, first compound 0.01 µM",32.6%
same,"viability, T/C","second compound 0.00949 µM, first compound 0.0316 µM",32.1%
same,"viability, T/C","second compound 0.00949 µM, first compound 0.1 µM",25.7%
same,"viability, T/C","second compound 0.00949 µM, first compound 0.316 µM",26.9%
same,"viability, T/C","second compound 0.00949 µM, first compound 1 µM",18.3%
same,"viability, T/C","second compound 0.03 µM, first compound 0.00316 µM",18.6%
same,"viability, T/C","second compound 0.03 µM, first compound 0.01 µM",19.4%
same,"viability, T/C","second compound 0.03 µM, first compound 0.0316 µM",17.6%
same,"viability, T/C","second compound 0.03 µM, first compound 0.1 µM",16.9%
same,"viability, T/C","second compound 0.03 µM, first compound 0.316 µM",17.6%
same,"viability, T/C","second compound 0.03 µM, first compound 1 µM",14.2%
same,"viability, T/C","second compound 0.0949 µM, first compound 0.00316 µM",17.8%
same,"viability, T/C","second compound 0.0949 µM, first compound 0.01 µM",13.2%
same,"viability, T/C","second compound 0.0949 µM, first compound 0.0316 µM",13.7%
same,"viability, T/C","second compound 0.0949 µM, first compound 0.1 µM",15.4%
same,"viability, T/C","second compound 0.0949 µM, first compound 0.316 µM",14%
same,"viability, T/C","second compound 0.0949 µM, first compound 1 µM",12.8%
same,"viability, T/C","second compound 0.3 µM, first compound 0.00316 µM",13.8%
same,"viability, T/C","second compound 0.3 µM, first compound 0.01 µM",13.2%
same,"viability, T/C","second compound 0.3 µM, first compound 0.0316 µM",10.6%
same,"viability, T/C","second compound 0.3 µM, first compound 0.1 µM",11.8%
same,"viability, T/C","second compound 0.3 µM, first compound 0.316 µM",13.6%
same,"viability, T/C","second compound 0.3 µM, first compound 1 µM",10.4%
